# Measured values reported in patent US11197857B2, “Combination therapy” (GlaxoSmithKline Intellectual Property Development Limited, priority 2016, dated 2021).
# What was measured:
# PRMT9 = PRMT9 (Homo sapiens, UniProt Q6P2P2); assay: PRMT family radioactive assay; type: biochemical; conditions: 60 minute SAM:Enzyme:Compound A preincubation
# [1] = system: 196 human cancer cell lines; assay: 6-day growth-death assay (Cell Titer Glo); type: cell-based
# Lymphoma cell lines = assay: 6-day growth-death assay (Cell Titer Glo); type: cell-based, human; conditions: 59 cell lines
# [2] = system: Bladder cancer cell lines; assay: 6-day growth-death assay (Cell Titer Glo); type: cell-based, human; conditions: 18 cell lines
# Colon cancer cell lines = assay: 6-day growth-death assay (Cell Titer Glo); type: cell-based, human
# Kidney cancer cell lines = assay: 6-day growth-death assay (Cell Titer Glo); type: cell-based, human; conditions: 10 cell lines
# [3] = system: ADMA, MMA, SDMA in Toledo cells; assay: arginine methylation western analysis (time course and washout); type: cell-based, human; design: time to return of MMA to baseline after washout / time to return of ADMA to baseline after washout / time to return of SDMA to baseline after washout: dose or concentration left out as unconfirmed
# Source text: (B) Representative western blots of arginine methylation marks. Regions quantified are denoted by black bars on the right of the gel.
# (B) Representative western blots of arginine methylation marks. Regions quantified for (A) are denoted by black bars on the side of the gel.
# As predicted, ADMA methylation decreased while MMA increased upon compound exposure (FIG. 12). […] Given the detection of numerous substrates with varying kinetics, and variability of ADMA levels among DMSO-treated samples, both the full lane and a prominent 45 kDa band were characterized to assess ADMA. Increases in MMA were apparent by 24 hours and near maximal by 48 hours while decreases in the 45 kDa ADMA band required 72-96 hours to achieve maximal effect. Increases in SDMA were apparent after 48 hours of compound exposure and continued to increase through 120 hours, consistent with the potential switch from conversion of MMA to ADMA by Type I PRMTs to SDMA by Type II PRMTs (FIG. 12).
# Cells were then washed, cultured in Compound A-free media, samples were collected daily through 120 hours, and arginine methylation levels were examined by western analysis. […] SDMA appeared to continue to increase even after 6 hours of washout. This is consistent with the continued increase observed through 120 hours without any obvious plateau (FIG. 12) coupled with the durable increase in MMA that has not yet returned to baseline after washout. Durability of each modification generally reflected the kinetics of arginine methylation changes brought about by Compound A, with MMA being the most rapid.
# Toledo cells = system: Toledo cells
# Source text: FIG. 18: Propidium iodide FACS analysis of cell cycle in human lymphoma cell lines. […] Data represents the average±SEM of biological replicates, n=2.
# 769-P = assay: 6-day growth-death assay (Cell Titer Glo); type: cell-based, human; conditions: ccRCC
# Description: (§1) The growth of all cell lines was evaluated over time across a wide range of seeding densities to identify conditions that permitted proliferation throughout the entire 6-day assay. Cells were plated at the optimal seeding density and after overnight incubation, a 20-point 2-fold titration of compound was added and plates were incubated for 6 days. A replicate plate of cells was harvested at the time of compound addition to quantify the starting number of cells (T0). Values obtained after the 6 day treatment were expressed as a function of the T0 value and plotted against compound concentration. The T0 value was normalized to 100% and represents the number of cells at the time of compound addition. The data were fit with a 4 parameter equation to generate a concentration response curve and the growth IC50 (gIC50) was determined. The gIC50 is the midpoint of the ‘growth window’, the difference between the number of cells at the time of compound addition (To) and the number of cells after 6 days (DMSO control). The growth-death assay can be used to quantify the net population change, clearly defining cell death (cytotoxicity) as fewer cells compared to the number at the time of compound addition (To).
# A498 = assay: 6-day growth-death assay (Cell Titer Glo); type: cell-based, human; conditions: A498, ccRCC
# Description: as §1
# G-401 = assay: 6-day growth-death assay (Cell Titer Glo); type: cell-based, human; conditions: G-401, Wilm's
# Description: as §1
# HL-60 = assay: 6-day growth-death assay (Cell Titer Glo); type: cell-based, human
# Description: as §1
# KASUMI-1 = assay: 6-day growth-death assay (Cell Titer Glo); type: cell-based, human
# Description: as §1
# NOMO-1 = assay: 6-day growth-death assay (Cell Titer Glo); type: cell-based, human; conditions: NOMO-1, subtype M5
# Description: as §1
# OCI-AML3 = assay: 6-day growth-death assay (Cell Titer Glo); type: cell-based, human
# Description: as §1
# SKM-1 = assay: 6-day growth-death assay (Cell Titer Glo); type: cell-based, human; conditions: SKM-1, subtype M5
# Description: as §1
# TF-1 = assay: 6-day growth-death assay (Cell Titer Glo); type: cell-based, human; conditions: TF-1, subtype M6
# Description: as §1
# [4] = system: non-TNBC breast cancer cell lines; assay: cells; conditions: Homo sapiens, read-out: Median gIC50
# Description: Cell lines representing triple negative breast cancer (TNBC) are shown in orange; other subtypes are in blue.
# as §1
# [5] = Homo sapiens, read-out: Median gIC50
# PRMT9, sequence (Q6P2P2 whole entry): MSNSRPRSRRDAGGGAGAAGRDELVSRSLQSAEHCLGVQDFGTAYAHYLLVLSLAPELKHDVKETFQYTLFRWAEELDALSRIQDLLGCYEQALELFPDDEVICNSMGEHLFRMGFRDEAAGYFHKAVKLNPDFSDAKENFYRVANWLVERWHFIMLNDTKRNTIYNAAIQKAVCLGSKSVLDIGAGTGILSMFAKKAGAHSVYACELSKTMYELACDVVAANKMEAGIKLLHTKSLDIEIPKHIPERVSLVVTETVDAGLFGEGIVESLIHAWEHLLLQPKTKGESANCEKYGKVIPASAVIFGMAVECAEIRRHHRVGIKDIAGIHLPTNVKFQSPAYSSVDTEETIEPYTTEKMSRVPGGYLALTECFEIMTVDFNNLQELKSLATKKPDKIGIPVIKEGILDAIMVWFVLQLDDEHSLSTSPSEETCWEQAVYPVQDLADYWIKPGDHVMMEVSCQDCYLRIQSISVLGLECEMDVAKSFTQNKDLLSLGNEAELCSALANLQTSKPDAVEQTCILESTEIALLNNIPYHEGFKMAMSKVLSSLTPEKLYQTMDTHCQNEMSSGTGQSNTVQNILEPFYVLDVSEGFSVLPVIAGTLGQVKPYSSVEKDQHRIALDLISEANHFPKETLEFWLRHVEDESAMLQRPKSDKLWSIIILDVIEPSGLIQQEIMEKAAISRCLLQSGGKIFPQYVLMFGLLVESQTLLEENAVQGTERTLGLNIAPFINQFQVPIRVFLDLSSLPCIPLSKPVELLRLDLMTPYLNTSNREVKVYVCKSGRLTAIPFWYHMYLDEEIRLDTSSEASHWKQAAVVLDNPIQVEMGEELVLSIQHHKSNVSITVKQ
structure (smiles),measurement,setting,value
CCOCC1(COCC)CCC(c2n[nH]cc2CN(C)CCNC)CC1 [Compound A],inhibition of activity,PRMT9,failed to inhibit
same,IC50,[1]; [5],2.12 µM
same,% Cytotoxic (cell lines with negative Ymin-T0),"[1]; Total, 196 cell lines",23%
same,% gIC100 < 2 μM (share of cell lines),"[1]; Total, 196 cell lines",4%
same,Median gIC100,"[1]; Total, 196 cell lines",29.33 µM
same,% Cytotoxic (cell lines with negative Ymin-T0),Lymphoma cell lines,54%
same,% gIC100 < 2 μM (share of cell lines),Lymphoma cell lines,14%
same,Median gIC100,Lymphoma cell lines,21.62 µM
same,% Cytotoxic (cell lines with negative Ymin-T0),[2],0%
same,% gIC100 < 2 μM (share of cell lines),[2],0%
same,Median gIC100,[2],29.33 µM
same,% Cytotoxic (cell lines with negative Ymin-T0),"Colon cancer cell lines; Colon, 34 cell lines",3%
same,% gIC100 < 2 μM (share of cell lines),"Colon cancer cell lines; Colon, 34 cell lines",0%
same,Median gIC100,"Colon cancer cell lines; Colon, 34 cell lines",29.33 µM
same,IC50,Colon cancer cell lines; [5],5.51 µM
same,% Cytotoxic (cell lines with negative Ymin-T0),Kidney cancer cell lines,0%
same,% gIC100 < 2 μM (share of cell lines),Kidney cancer cell lines,0%
same,Median gIC100,Kidney cancer cell lines,29.35 µM
same,time after which increases in SDMA were apparent,[3]; 0.4 μM,48 h
same,time by which increases in MMA were apparent,[3]; 0.4 μM,≤ 24 h
same,time by which increases in MMA were near maximal,[3]; 0.4 μM,≤ 48 h
same,time required for maximal decrease of 45 kDa ADMA band,[3]; 0.4 μM,72 to 96 h
same,ADMA methylation change,"[3]; 0.4 μM, up to 120 hours",decreased
same,MMA change,"[3]; 0.4 μM, up to 120 hours",increased
same,SDMA level change,"[3]; 0.4 μM, up to 120 hours",increase
same,time to return of ADMA to baseline after washout,[3]; then washout,≤ 24 h
same,time to return of MMA to baseline after washout,[3]; then washout,≤ 24 h
same,time to return of SDMA to baseline after washout,[3]; then washout,≤ 96 h
same,concentrations giving accumulation of cells in sub-G1,Toledo cells; beginning after 3 days of treatment,1000 nM
same,concentrations giving increase in sub-G1 population,Toledo cells; by day 7,100 nM
same,Ymin-T0,769-P,119.0
same,Ymin-T0,A498,313.4
same,Ymin-T0,G-401,353.7
same,Ymin-T0,"HL-60; HL-60, subtype M3",−33.4
same,gIC100,"HL-60; HL-60, subtype M3",6.38 ± 12.83 µM
same,IC50,"HL-60; Homo sapiens, HL-60, read-out: gIC50",0.02 ± 0.01 µM
same,IC50,"KASUMI-1; Homo sapiens, Kasumi 1, read-out: gIC50",0.36 ± 0.25 µM
same,Ymin-T0,"KASUMI-1; KASUMI-1, subtype M2",−17.7
same,gIC100,"KASUMI-1; KASUMI-1, subtype M2",18.88 ± 10.55 µM
same,Ymin-T0,NOMO-1,259.1
same,gIC100,NOMO-1,29.33 ± 0.00 µM
same,IC50,"OCI-AML3; Homo sapiens, OCI-AML-3, read-out: gIC50",0.87 ± 0.14 µM
same,Ymin-T0,"OCI-AML3; OCI-AML3, subtype M4",523.2
same,gIC100,"OCI-AML3; OCI-AML3, subtype M4",29.33 ± 0.00 µM
same,Ymin-T0,SKM-1,−19.1
same,gIC100,SKM-1,11.61 ± 5.52 µM
same,Ymin-T0,TF-1,788.1
same,gIC100,TF-1,29.33 ± 0.00 µM
same,IC50,[4],6.8 µM
